Series [1] is described as follows: Blood drug concentration analysis (PK) in the in vivo depletion assay. On the set-up: species or system human CCR2 (hCCR2) knock-in mice. As to conditions: human CCR2 (hCCR2) knock-in, C57 background, mouse, whole blood, LC-MS/MS, IV bolus 0.1 mpk compound + 10 mpk anti-cotinine antibody, 48 hours post-dose, read-out: Exposure of Compound of Formula (I) 48 hours post-dose. On the procedure: Human CCR2 (hCCR2) knock-in mice (C57 background) were dosed intravenously with a PBS solution containing a compound of Formula (I) to measure depletion of CCR2 expressing cells in peripheral blood. Peripheral blood from IV dosed mice was also analyzed to determine PK properties of the compounds of Formula (I).
Administration to Animal: Solution formulation of antibody and compound of Formula (I) was injected (bolus injection) to the restrained mouse in the right/left lateral tail vein. Animals were dosed with 0.1 milligram per kilogram (mpk) of the compound of Formula (I) and 10 mpk of the anti-cotinine antibody.
Collection of Blood for PK: Blood was collected at time points 0.25 hour, 2 hours, and […] following administration (50 μL/time point) through retro-orbital bleeding under mild isoflurane anesthesia.
Terminal bleeding at end of experiment (48 hr): Approximately 250 μL of blood in K2EDTA tube and approximately 250 μL of blood in SST (serum separation tube) was collected from each mouse through retro-orbital bleeding under deep isoflurane anesthesia. After bleeding, each mouse was sacrificed by cervical dislocation. The blood distribution at termination was determined as follows: • For PK: 50 μL of K2EDTA blood was transferred to another tube for PK • Flow cytometry: Remaining blood (˜200 μL) was used for flow cytometry analysis. • For serum collection: serum separator tubes (BD) were centrifuged at 4° C., 5000 rpm for 15 minutes. Approximately 100 μL serum was separated and stored at −80° C. for further usage. • Blood drug concentration: Samples collected at the various timepoints (0.25 hr, 2 hr, 24 and 48 hr) were analyzed to determine blood drug concentration.
Blood drug concentration analysis: Drug concentration in blood samples was determined by an LC-MS/MS-based bioanalytical method developed at Syngene. Samples were analyzed on Q-Trap, API-5500 LC-MS/MS system coupled with Exion UHPLC system from SCIEX, USA operated in multiple reaction monitoring mode employing electrospray ionization technique in positive polarity. Analyte and internal standard peaks were resolved on Synergi Polar, 75×2.0 mm, 4 μcolumn using mobile phase 10 mM Ammonium acetate in Milli-Q water as phase A and 0.1% Formic acid in acetonitrile as Phase B. Gradient elution was performed with initial composition 95% Phase A at 0.0 min, holding it for 0.2 minutes, ramping to 5% by 1.0 minute, keeping the same for next 0.5 minutes and coming back to 95% by 1.6 minutes. The total run time was 2 minutes.
Working dilutions for calibration curve and quality control standards were prepared by serially diluting 20 mg/mL stock solution with DMSO. Spiked concentrations for calibration curve in the whole blood ranged from 1 ng/mL to 1000 ng/mL. […]

For series [2], the target named is T1, CHOK1 cells engineered to overexpress human CCR2 (Homo sapiens, UniProt P41597).
T1 construct: expressed in transfected cells; host or cells: CHOK1 cells
Description: Antibody dependent cellular cytotoxicity (ADCC) reporter assay. The format is cell-based. As to conditions: with anti-cotinine antibody (SEQ ID NO: 11/12, human IgG1 Fc S239D/I332E); Jurkat FcγRIIIa NFAT-luciferase reporter cells; 12-18 hours; average if more than one run; read-out: ADCC Reporter Assay pEC50 (converted). On the procedure: An antibody dependent cellular cytoxocity reporter assay was conducted using the following four assay components: (i) ARM compound of Formula (I) targeting CCR2 (concentrations ranging from 1 pM to 10 μM) (ii) anti-cotinine antibody having a heavy chain sequence of SEQ ID NO: 11 and a light chain sequence of SEQ ID NO: 12 (rabbit variable region with human IgG1 Fc domain containing a DE mutation (S239D/I332E)) (concentrations ranging from 0.01 μg/mL to 200 μg/mL); (iii) target cells: CHOK1 cells engineered to overexpress either human CCR2 (typically 1000-20,000 cells perwell) and (iv) reporter cells: Jurkat cells engineered to express FcγRIIIa with the reporter gene luciferase under the control of the NFAT promoter (typically 3000-75,000 cells per well). Reagents were combined in a final volume of 20 μL in a 384—well tissue culture treated plate. All four assay components were incubated together for about 12-18 hours. Thereafter, BioGlo Detection reagent (Promega) was added to the wells to lyse the cells and provide a substrate for the luciferase reporter protein. Luminescence signal was measured on a microplate reader and signal:background was calculated by dividing the signal of a test well by the signal obtained when no ARM compound of Formula (I) was added. EC50 calculations were done using Graphpad Prism Software, specifically a nonlinear regression curve fit (Y=Bottom+(Top−Bottom)/(1+10 ^((Log EC50−X)*HillSlope))).
ARMs compounds of Formula (I) of the invention were tested for ADCC activity in the above assay in or more experimental runs and the results are shown in Table 3 below. Potency of the compounds of Formula (I) of the invention is reported as a pEC50 value. The pEC50 value is the negative log of the EC50 value, wherein the EC50 value is the half maximal effective concentration measured in molar (M). For compounds tested in more than one experimental run, the pEC50 value is reported as an average.
In general terms: Reporter assays use an easily measured gene product as a stand-in for the process of interest.

Molecules are shown by their SMILES.

On to `CC(=O)N[C@@H]1C[C@H](NC(C)(C)C)CC[C@@H]1N1CC[C@H](Nc2nc([C@H]3CC[C@@H](NC(=O)[C@H]4CC[C@H](NC(=O)CCCO[C@H]5CC[C@H](OCCNC(=O)[C@H]6CC(=O)N(C)[C@@H]6c6cccnc6)CC5)CC4)CC3)nc3ccc(C(F)(F)F)cc23)C1=O` [Example 10, (2S,3S)-N-(2-(((1R,4S)-4-(4-(((1R,4R)-4-(((1R,4S)-4-(4-(((S)-1-((1S,2R,4R)-2-Acetamido-4-(tert-butylamino)cyclohexyl)-2-oxopyrrolidin-3-yl)amino)-6-(trifluoromethyl)quinazolin-2-yl)cyclohexyl)carbamoyl)cyclohexyl)amino)-4-oxobutoxy)cyclohexyl)oxy)ethyl)-1-methyl-5-oxo-2-(pyridin-3-yl)pyrrolidine-3-carboxamide], for which the concentration at 48 h in series [1] came out at 35.5 ng/mL. Besides, in series [2], the EC50 is 0.251 nM.
For the compound `CC(=O)N[C@@H]1C[C@H](NC(C)(C)C)CC[C@@H]1N1CC[C@H](Nc2nc([C@H]3CC[C@H](NC(=O)[C@H]4CC[C@H](NC(=O)CCCO[C@H]5CC[C@H](OCCNC(=O)[C@H]6CC(=O)N(C)[C@@H]6c6cccnc6)CC5)CC4)CC3)nc3ccc(C(F)(F)F)cc23)C1=O` [Example 11, (2S,3S)-N-(2-(((1R,4S)-4-(4-(((1S,4R)-4-(((1S,4R)-4-(4-(((S)-1-((1S,2R,4R)-2-Acetamido-4-(tert-butylamino)cyclohexyl)-2-oxopyrrolidin-3-yl)amino)-6-(trifluoromethyl)quinazolin-2-yl)cyclohexyl)carbamoyl)cyclohexyl)amino)-4-oxobutoxy)cyclohexyl)oxy)ethyl)-1-methyl-5-oxo-2-(pyridin-3-yl)pyrrolidine-3-carboxamide], the concentration at 48 h in series [1] is 93.4 ng/mL. The EC50 in series [2] is 0.158 nM.
The corresponding values for `CC(=O)N[C@@H]1C[C@H](NC(C)(C)C)CC[C@@H]1N1CC[C@H](Nc2nc(CCCCNC(=O)[C@H]3CC[C@H](NC(=O)CCCO[C@H]4CC[C@H](OCCNC(=O)[C@H]5CC(=O)N(C)[C@@H]5c5cccnc5)CC4)CC3)nc3ccc(C(F)(F)F)cc23)C1=O` [Example 3, (2S,3S)-N-(2-(((1R,4S)-4-(4-(((1S,4R)-4-((4-(4-(((S)-1-((1S,2R,4R)-2-Acetamido-4-(tert-butylamino)cyclohexyl)-2-oxopyrrolidin-3-yl)amino)-6-(trifluoromethyl)quinazolin-2-yl)butyl)carbamoyl)cyclohexyl)amino)-4-oxobutoxy)cyclohexyl)oxy)ethyl)-1-methyl-5-oxo-2-(pyridin-3-yl)pyrrolidine-3-carboxamide] are 37.1 ng/mL and 0.158 nM.

The record behind these values is patent US20250057958A1, “CYTOTOXICITY TARGETING CHIMERAS FOR CCR2-EXPRESSING CELLS” (GLAXOSMITHKLINE INTELLECTUAL PROPERTY DEVELOPMENT LIMITED, priority 2022, published 2025).
